Laboratory results taken from PMC5958115, “A novel small molecule chaperone of rod opsin and its potential therapy for retinal degeneration” (Nature Communications, 2018).
Like-named read-outs stand apart in the source and are kept apart here.

Tests used:
[1] = biological target: mouse P23H-opsin mutant (Mus musculus, UniProt P15409, P23H); assay: β-Gal fragment complementation assay: rescue of P23H opsin transport from ER to plasma membrane, U2OS(PLC-EA/P23H-PK) cells; type: cell-based; conditions: for β-Gal fragment complementation assay Activity score (%) Max (fit) / Efficacy: 24 h, 5 µM 9-cis-retinal = 100%, from curve fitting; for dependence of activity on light: cells exposed to light vs dark; for Efficacy (%): normalized to 5 µM 9-cis-retinal
Source text: U2OS(PLC-EA/P23H-PK) cells. A U2OS stable cell line was generated by DiscoveRx, Inc. (Fremont, CA, USA) for the β-Gal fragment complementation assay used in the small-molecule HTS for rescue of P23H-opsin transport. U2OS cells that continually express P23H-PK and PLC-EA fusion proteins were generated. Briefly, this small subunit of β-Gal (PK fragment) was fused to the C-terminal of the mouse P23H-opsin mutant, while the large EA fragment, a subunit of β-Gal, was fused with PLC, a plasma membrane-anchored peptide. Both constructs were subcloned by DicoveRx, Inc. and transferred into U2OS cells by viral infections. Positive clones were selected under treatment with hygromycin and geneticin.
Briefly, U2OS(PLC-EA /P23H-PK) cells were suspended in assay medium at 3 × 10^5 cells mL^−1. The cell suspension was dispensed into 384-well plates (Greiner Bio-one, Monroe, NC, USA) at 20 µL per well, with a Multidrop dispenser (Thermo Scientific, Waltham, MA, USA). Plates with cells then were centrifuged at 200×g for 15 s before incubation at 37 °C with 5% CO2. Plates were removed 24 h later for treatment with tested compounds. A total of 248 plates containing 79,080 compounds from three small-molecule libraries were paired with an equal number of assay plates with cultured cells. Owing to a limited capacity, these plates were assayed in seven batches. An average of 56.3 nL of 10 mM compound in DMSO was dispensed into each well from column 3 to 22 of paired assay plates using a 50 nL 384-pintool system, such that the final concentration of each compound was 22.52 µM on average. […] Each assay plate was shaken for 5 s before further incubation at 37 °C with 5% CO2. After 24 h, assay plates were removed, and each well was incubated with 25 µL of 1× Gal-Screen assay buffer (1:24 substrate-buffer ratio). Assay plates were incubated in the dark for 60–90 min, and luminescence was read from each assay plate with an Envision microplate reader (PerkinElmer) during a 0.1 s per well integration time. The mean and s.d. of readouts in column 2 of each plate were calculated as Mean0% and SD0%, whereas the average and s.d. of readouts in column 23 were calculated as Mean100% and SD100%. Eq. 1: Activity scores (%) = (RLUcp − Mean0%)/(Mean100% − Mean0%) × 100%, where RLUcp is the relative luminescence unit derived for cells treated with a compound. Eq. 2: Z′-factor = 1–3 × (SD0% + SD100%)/(Mean100% − Mean0%)[32]; Eq. 3: signal-to-background (S/B) ratio = Mean100%/Mean0%. Activities of all tested compounds were registered with their compound ID by GeneData Screener (Genedata, Basel, Switzerland) and Pipeline Pilot software (Accelrys, San Diego, CA, USA). Hits, cherry-picked from a separate stock dose-dependent activity test, were selected with an activity score cutoff at 20%. Activity of each hit was tested again with the β-Gal fragment complementation assay in a 10-dose series with each dose tested in triplicate. The 10 doses tested were 80, 40, 20, 10, 5, 2.5, 1.25, 0.625, 0.313, and 0.156 µM. Dose-dependent curves of each hit compound were fitted with GeneData and Origin software.
Detailed synthetic steps are described in Supplementary Note and Supplementary Fig. 9. […] YC-002-YC-021 were purchased from commercial vendors including Enamine LLC (Monmouth Jct., NJ, USA), Matrix Scientific (Columbia, SC, USA) and Tokyo Chemical Industry Co., Ltd. (Portland, OR, USA). […] Activities of YC compounds were tested with the β-Gal fragment complementation assay, as described in a prior section. All YC compounds were tested at 10 doses, each in triplicate: 80, 40, 20, 10, 5, 2.5, 1.25, 0.625, 0.313, and 0.156 µM.

[2] = biological target: T1, mouse P23H opsin (Mus musculus, UniProt P15409, P23H); assay: High-content imaging analysis of P23H opsin immunostaining in NIH3T3-(P23H opsin/GFP) cells; type: cell-based
T1 construct: expressed in transfected cells
Method: To characterize the effect of active compounds on the localization of P23H-mutant opsin in mammalian cells, an image-based assay was used with cells immunostained for WT or P23H-mutant opsin protein[18]. Briefly, NIH3T3-(P23H opsin/GFP) or NIH3T3-(WT-opsin/GFP) cells were seeded at 5000 cells per well in a 384-well cell-carrier plate (PerkinElmer) and incubated at 37 °C with 5% CO2 for 2 h. Cells were treated with compounds as described for the β-Gal fragment complementation assay and incubated in assay medium for 24 h. The assay medium then was aspirated, and cells were fixed with 4% paraformaldehyde at 20 µL per well for 20 min at RT. Cells were immunostained in one of two ways: cell membranes were either permeabilized with 0.1% Triton X-100 for 15 min or left intact and then were incubated with 10% goat serum (Life Technologies). To detect opsin on the cell plasma membrane only, intact cells were immunostained with 20 µL per well of 20 µg mL^−1 B6-30 anti-rhodopsin antibody that recognizes the N-terminal epitope on the extracellular side of rhodopsin. To detect total opsin, cells were permeabilized with Triton X-100 and immunostained with 50 µg mL^−1 1D4 anti-rhodopsin antibody specific for the C-terminal epitope on the intracellular side of rhodopsin. Opsin immunostaining was visualized by incubating cells with 5 µg mL^−1 Cy3-conjugated goat anti-mouse IgG antibody. Three washes with phosphate-buffered saline (PBS: 10 mM Na2HPO4, 1.8 mM KH2PO4, pH 7.4, 137 mM NaCl, and 2.7 mM KCl) were performed between each step of incubation with antibody. In the last wash with PBS, DAPI was added to each well at 300 nM. Fluorescence images were obtained with the Operetta High Content Imaging System (PerkinElmer) using a ×20 long objective. Five fields were taken of each well for cell images using three channels for fluorescence: GFP (100 ms), Cy3 (300 ms), and DAPI (50 ms). Images were analyzed with Acapella software from the Columbus data storage and analysis system (PerkinElmer)[18]. For cells immunostained with opsin on the non-permeabilized cell membrane only, an average of total fluorescence intensity of Cy3 per cell was used to quantify opsin in each well of the 384-well plate. For cells immunostained with opsin in permeabilized whole cells, an average ratio of Cy3 intensity on the cell plasma membrane (PM) to that of the entire cell (opsin ratio PM-to-total) was calculated for each well of a 384-well plate to quantify opsin transport to the plasma membrane. The plasma membrane was defined within ± 5% of the cell border.

[3] = 24 h preincubation, activity standardized to 5 µM 9-cis-retinal as 100%, Hill fit, read-out: β-Gal fragment complementation assay Activity score (%) EC50
[4] = cell-surface immunostaining, non-permeabilized, Fig. 2j, read-out: EC50, opsin on the plasma membrane (Opsin INT)
[5] = ratio of P23H rod opsin fluorescence on plasma membrane to whole cell
[6] = ratio of P23H rod opsin fluorescence on plasma membrane to whole cell, read-out: Immunostaining HCS MEM-Total ratio EC50

Row | β-Gal fragment complementation assay Activity score (%) Max (fit) / Efficacy [1] [%] | EC50 [1, 3] [nM] | Immunostaining HCS MEM-Total ratio Max (fit) [2, 5] | Compound | dependence of activity on light [1] | A1 (low plateau), Opsin INT ([2]; Fig. 2j) | A2 (high plateau), Opsin INT ([2]; Fig. 2j) | A1 (low plateau), Opsin ratio PM-to-total ([2]; Fig. 2l) | A2 (high plateau), Opsin ratio PM-to-total ([2]; Fig. 2l) | A1 (low plateau), Opsin ratio ER-to-total ([2]; Fig. 2n) | A2 (high plateau), Opsin ratio ER-to-total ([2]; Fig. 2n) | EC50 [2, 4] [nM] | EC50 [2, 6] [nM] | other results
1 | 159 | 2700 | 0.019 | CC1=C(/C=C/C(C)=C\C=C\C(C)=C\C=O)C(C)(C)CCC1 [9-cis-retinal, reference compound] | required that cells be incubated in the dark | 219 | 275 | 0.167 | 0.186 | 0.240 | 0.255 | 377 | – | EC50 ([2]; whole-cell immunostaining, Fig. 2l, read-out: EC50, Opsin ratio PM-to-total): 1210 nM
2 | 98.2 | 3090 | 0.070 | O=C(CCCCCN1C(=O)c2cccc3cccc(c23)C1=O)NO [Scriptaid, reference compound] | – | – | – | – | – | – | – | – | 380 | activity in rescuing P23H-opsin transport (in words) [1]: strong activity in rescuing P23H opsin transport

Row | Compound | β-Gal fragment complementation assay Activity score (%) Max (fit) / Efficacy [1] [%] | EC50 [1, 3] [nM] | Immunostaining HCS MEM-Total ratio Max (fit) [2, 5] | dependence of activity on light [1] | A1 (low plateau), Opsin INT ([2]; Fig. 2j) | A2 (high plateau), Opsin INT ([2]; Fig. 2j) | A1 (low plateau), Opsin ratio PM-to-total ([2]; Fig. 2l) | A2 (high plateau), Opsin ratio PM-to-total ([2]; Fig. 2l) | A1 (low plateau), Opsin ratio ER-to-total ([2]; Fig. 2n) | A2 (high plateau), Opsin ratio ER-to-total ([2]; Fig. 2n) | EC50 [2, 4] [nM] | EC50 [2, 6] [nM] | other results
3 | O=C1OCC(c2ccc(Cl)s2)=C1c1cccs1 [YC-001] | 310 | 8700 | 0.030 | not affected | 218 | 270 | 0.172 | 0.202 | 0.236 | 0.248 | 3220 | 2750 | efficacy, % of the control activity score ([1]; HTS hits, variability between experiments): 150–310%; effect of co-treatment with 9-cis-retinal ([1]; YC-001 dose series together with 5 µM 9-cis-retinal): No additive effect; Efficacy (%) ([1]; modifications at C4): 248%; EC50 ([1]; modifications linked to C3 of the furan-2(5H)-one ring, 10 doses 0.156-80 µM, read-out: Potency EC50): 8390 nM; Efficacy (%) ([1]; modifications of the furan-2(5H)-one ring): 248%; Efficacy (%) ([1]; more than one site modified): 248%; time to maximum activity ([1]; time course, Fig. 1f): ≤ 15 h; EC50 ([2]; whole-cell immunostaining, Fig. 2n, read-out: EC50, Opsin ratio ER-to-total): 2140 nM
